Measured values reported in patent US20060069132A1, “Azolecarboxamide herbicides” (priority 2004, published 2006).

Legend:
[1] = test system: small flower umbrella sedge; experiment: Test B flooded paddy test; type: in vivo, Cyperus difformis; conditions: 1000 g ai/ha, scale 0 to 100 (0 no effect, 100 complete control)
Summary of the method: (§1)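 Formulated test chemicals went onto postemergence plants measuring 2 to 18 cm, at one to four leaves. For the paddy assay, species had reached two leaves. Scoring took place 13–15 days later by eye, relative to untreated plants, using 0 for no effect up to 100 for full control.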

Surinam grass = experiment: Test B pre-/postemergence herbicide test; type: in vivo, Urochloa decumbens; conditions: for Surinam Grass plant response rating (0 to 100 scale) / Plant response rating, Surinam Grass: preemergence; for Surinam Grass plant response rating: postemergence
Summary of the method: (§2)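 Pre: seeds sown, then sprayed. Post: 1–4-leaf plants (2–18 cm) sprayed at the same time. Paddy: flooded, treated at 2-leaf stage. Formulation: non-phytotoxic solvent with surfactant. Greenhouse 13–15 days; visual 0–100 score relative to controls.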

morningglory = experiment: Test B pre-/postemergence herbicide test; type: in vivo, Ipomoea coccinea; conditions: for Morningglory plant response rating (0 to 100 scale) / Plant response rating, Morningglory: preemergence; for Morningglory plant response rating: postemergence
Summary of the method: (§3)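 Plants compared with untreated controls 13–15 days post-treatment and given a visual 0–100 injury score. Applications: preemergence to seeds; postemergence at 1- to 4-leaf (2–18 cm); paddy species flooded, 2-leaf stage. Vehicle non-phytotoxic, surfactant included.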

corn = experiment: Test B pre-/postemergence herbicide test; type: in vivo, Zea mays; conditions: for Corn plant response rating (0 to 100 scale) / Plant response rating, Corn: preemergence; for Corn plant response rating: postemergence
Summary of the method: as §2

rice [2] = experiment: Test B flooded paddy test; type: in vivo, Oryza sativa; conditions: 1000 g ai/ha, scale 0 to 100 (0 no effect, 100 complete control)
Summary of the method: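 Plants grow to 1- to 4-leaf stage (2–18 cm) for postemergence spraying, or to 2-leaf stage for the paddy test. Formulated compound is applied. Greenhouse holding lasts 13–15 days. Response is scored visually relative to controls, 0 no effect to 100 complete control; a dash means no result.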

velvetleaf = experiment: Test B pre-/postemergence herbicide test; type: in vivo, Abutilon theophrasti; conditions: for Velvetleaf plant response rating (0 to 100 scale) / Plant response rating, Velvetleaf: preemergence; for Velvetleaf plant response rating: postemergence
Summary of the method: as §2

pigweed = experiment: Test B pre-/postemergence herbicide test; type: in vivo, Amaranthus retroflexus; conditions: for Pigweed plant response rating (0 to 100 scale) / Plant response rating, Pigweed: preemergence; for Pigweed plant response rating: postemergence
Summary of the method: as §2

wild oat = experiment: Test B postemergence herbicide test; type: in vivo, Avena fatua; conditions: postemergence
Summary of the method: (§4)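 After treating 2-leaf paddy plants or 2–18 cm postemergence plants (1 to 4 leaves) with formulated chemical, researchers kept them in a greenhouse for 13–15 days. Effects were judged visually versus controls: 0 indicates none, 100 total control.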

giant foxtail = experiment: Test B pre-/postemergence herbicide test; type: in vivo, Setaria faberi; conditions: for Foxtail, Giant plant response rating (0 to 100 scale) / Plant response rating, Foxtail, Giant: preemergence; for Foxtail, Giant plant response rating: postemergence
Summary of the method: as §2

barnyardgrass [3] = experiment: Test B flooded paddy test; type: in vivo, Echinochloa crus-galli; conditions: 1000 g ai/ha, scale 0 to 100 (0 no effect, 100 complete control)
Summary of the method: as §1

lambsquarters = experiment: Test B pre-/postemergence herbicide test; type: in vivo, Chenopodium album; conditions: for Lambsquarters plant response rating: postemergence
Summary of the method: as §2

cocklebur = experiment: Test B pre-/postemergence herbicide test; type: in vivo, Xanthium strumarium; conditions: for Cocklebur plant response rating (0 to 100 scale) / Plant response rating, Cocklebur: preemergence; for Cocklebur plant response rating: postemergence
Summary of the method: as §3

large crabgrass = experiment: Test B pre-/postemergence herbicide test; type: in vivo, Digitaria sanguinalis; conditions: for Crabgrass, Large plant response rating (0 to 100 scale) / Plant response rating, Crabgrass, Large: preemergence; for Crabgrass, Large plant response rating: postemergence
Summary of the method: as §2

ducksalad = experiment: Test B flooded paddy test; type: in vivo, Heteranthera limosa; conditions: 1000 g ai/ha, scale 0 to 100 (0 no effect, 100 complete control)
Summary of the method: as §1

barnyardgrass [4] = experiment: Test B pre-/postemergence herbicide test; type: in vivo, Echinochloa crus-galli; conditions: for Barnyardgrass plant response rating (0 to 100 scale) / Plant response rating, Barnyardgrass: preemergence; for Barnyardgrass plant response rating: postemergence
Summary of the method: as §3

rice [5] = experiment: Test B pre-/postemergence herbicide test; type: in vivo, Oryza sativa; conditions: preemergence; for Rice plant response rating (0 to 100 scale): 125 g ai/ha; for Plant response rating, Rice: 500 g ai/ha
Summary of the method: as §2

blackgrass = experiment: Test B postemergence herbicide test; type: in vivo, Alopecurus myosuroides; conditions: postemergence
Summary of the method: as §1

wheat = experiment: Test B postemergence herbicide test; type: in vivo, Triticum aestivum; design: key to Wheat plant response rating: 0 = no effect, 100 = complete control; conditions: postemergence
Summary of the method: as §4

[6] = 125 g ai/ha, 0 = no effect, 100 = complete control
[7] = 500 g ai/ha, visual rating 0-100, 0 no effect, 100 complete control
[8] = 125 g ai/ha, visual rating, scale 0 (no effect) to 100 (complete control)
[9] = 500 g ai/ha, visual rating, scale 0 (no effect) to 100 (complete control)
[10] = 0 = no effect, 100 = complete control
[11] = 500 g ai/ha, visual rating, 0 = no effect, 100 = complete control
[12] = 500 g ai/ha, scale 0 to 100, 0 is no effect, 100 is complete control

## CCCc1nn(C(C)(C)C)cc1C(=O)Nc1cccc(C(=O)N(CC)CC)c1 [Compound 185]
[1]; visual rating, 13 to 15 days
  Sedge, Umbrella plant response rating: 60
Surinam grass; [6]
  Surinam Grass plant response rating (0 to 100 scale): 10
Surinam grass; [7]
  Plant response rating, Surinam Grass: 20
Surinam grass; [8]
  Surinam Grass plant response rating: 20
Surinam grass; [9]
  Surinam Grass plant response rating: 30
morningglory; [6]
  Morningglory plant response rating (0 to 100 scale): 0
morningglory; [7]
  Plant response rating, Morningglory: 50
morningglory; [8]
  Morningglory plant response rating: 40
morningglory; [9]
  Morningglory plant response rating: 70
corn; [6]
  Corn plant response rating (0 to 100 scale): 0
corn; [7]
  Plant response rating, Corn: 0
corn; [8]
  Corn plant response rating: 20
corn; [9]
  Corn plant response rating: 30
Rice [2]; visual rating, 13 to 15 days
  Rice plant response rating: 0
velvetleaf; [6]
  Velvetleaf plant response rating (0 to 100 scale): 10
velvetleaf; [7]
  Plant response rating, Velvetleaf: 50
velvetleaf; [8]
  Velvetleaf plant response rating: 30
velvetleaf; [9]
  Velvetleaf plant response rating: 50
pigweed; [6]
  Pigweed plant response rating (0 to 100 scale): 0
pigweed; [7]
  Plant response rating, Pigweed: 100
pigweed; [8]
  Pigweed plant response rating: 60
pigweed; [9]
  Pigweed plant response rating: 80
Wild oat; [8]
  Oat, Wild plant response rating: 10
Wild oat; [9]
  Oat, Wild plant response rating: 30
Giant foxtail; [6]
  Foxtail, Giant plant response rating (0 to 100 scale): 0
Giant foxtail; [7]
  Plant response rating, Foxtail, Giant: 70
Giant foxtail; [8]
  Foxtail, Giant plant response rating: 20
Giant foxtail; [9]
  Foxtail, Giant plant response rating: 30
Barnyardgrass [3]; visual rating, 13 to 15 days
  Barnyardgrass plant response rating: 0
lambsquarters; 125 g ai/ha, 0 = no effect, 100 = complete control, preemergence
  Lambsquarters plant response rating (0 to 100 scale): 20
lambsquarters; 500 g ai/ha, visual rating 0-100, 0 no effect, 100 complete control, preemergence
  Plant response rating, Lambsquarters: 80
lambsquarters; [8]
  Lambsquarters plant response rating: 60
lambsquarters; [9]
  Lambsquarters plant response rating: 70
cocklebur; [6]
  Cocklebur plant response rating (0 to 100 scale): 0
cocklebur; [7]
  Plant response rating, Cocklebur: 0
cocklebur; [8]
  Cocklebur plant response rating: 20
cocklebur; [9]
  Cocklebur plant response rating: 50
Large crabgrass; [6]
  Crabgrass, Large plant response rating (0 to 100 scale): 0
Large crabgrass; [7]
  Plant response rating, Crabgrass, Large: 50
Large crabgrass; [8]
  Crabgrass, Large plant response rating: 20
Large crabgrass; [9]
  Crabgrass, Large plant response rating: 40
ducksalad; visual rating, 13 to 15 days
  Ducksalad plant response rating: 0
Barnyardgrass [4]; [6]
  Barnyardgrass plant response rating (0 to 100 scale): 0
Barnyardgrass [4]; [7]
  Plant response rating, Barnyardgrass: 70
Barnyardgrass [4]; [8]
  Barnyardgrass plant response rating: 30
Barnyardgrass [4]; [9]
  Barnyardgrass plant response rating: 50
Rice [5]; [10]
  Rice plant response rating (0 to 100 scale): 0
Rice [5]; visual rating 0-100, 0 no effect, 100 complete control
  Plant response rating, Rice: 0
blackgrass; [8]
  Blackgrass plant response rating: 0
blackgrass; [9]
  Blackgrass plant response rating: 0
wheat; [8]
  Wheat plant response rating: 0
wheat; [9]
  Wheat plant response rating: 10

## CCNC(=O)c1ccc(F)c(NC(=O)c2c(F)c(C(C)(C)C)nn2CC)c1 [Compound 275]
[1]
  Sedge, Umbrella plant response rating: 80
Surinam grass; [6]
  Surinam Grass plant response rating (0 to 100 scale): 0
Surinam grass; [11]
  Plant response rating, Surinam Grass: 10
Surinam grass; [8]
  Surinam Grass plant response rating: 10
Surinam grass; [12]
  Surinam Grass plant response rating: 30
morningglory; [6]
  Morningglory plant response rating (0 to 100 scale): 0
morningglory; [11]
  Plant response rating, Morningglory: 40
morningglory; [8]
  Morningglory plant response rating: 0
morningglory; [12]
  Morningglory plant response rating: 10
corn; [6]
  Corn plant response rating (0 to 100 scale): 0
corn; [11]
  Plant response rating, Corn: 20
corn; [8]
  Corn plant response rating: 0
corn; [12]
  Corn plant response rating: 0
Rice [2]
  Rice plant response rating: 20
velvetleaf; [6]
  Velvetleaf plant response rating (0 to 100 scale): 0
velvetleaf; [11]
  Plant response rating, Velvetleaf: 0
velvetleaf; [8]
  Velvetleaf plant response rating: 0
velvetleaf; [12]
  Velvetleaf plant response rating: 30
pigweed; [6]
  Pigweed plant response rating (0 to 100 scale): 0
pigweed; [11]
  Plant response rating, Pigweed: 40
pigweed; [8]
  Pigweed plant response rating: 60
pigweed; [12]
  Pigweed plant response rating: 70
Wild oat; [8]
  Oat, Wild plant response rating: 30
Wild oat; [12]
  Oat, Wild plant response rating: 40
Giant foxtail; [6]
  Foxtail, Giant plant response rating (0 to 100 scale): 0
Giant foxtail; [11]
  Plant response rating, Foxtail, Giant: 20
Giant foxtail; [8]
  Foxtail, Giant plant response rating: 0
Giant foxtail; [12]
  Foxtail, Giant plant response rating: 0
Barnyardgrass [3]
  Barnyardgrass plant response rating: 20
lambsquarters; 500 g ai/ha, visual rating, 0 = no effect, 100 = complete control, preemergence
  Plant response rating, Lambsquarters: 100
lambsquarters; [8]
  Lambsquarters plant response rating: 50
lambsquarters; [12]
  Lambsquarters plant response rating: 70
cocklebur; [6]
  Cocklebur plant response rating (0 to 100 scale): 0
cocklebur; [11]
  Plant response rating, Cocklebur: 0
cocklebur; [8]
  Cocklebur plant response rating: 0
cocklebur; [12]
  Cocklebur plant response rating: 10
Large crabgrass; [6]
  Crabgrass, Large plant response rating (0 to 100 scale): 0
Large crabgrass; [11]
  Plant response rating, Crabgrass, Large: 0
Large crabgrass; [8]
  Crabgrass, Large plant response rating: 0
Large crabgrass; [12]
  Crabgrass, Large plant response rating: 10
ducksalad
  Ducksalad plant response rating: 60
Barnyardgrass [4]; [6]
  Barnyardgrass plant response rating (0 to 100 scale): 0
Barnyardgrass [4]; [11]
  Plant response rating, Barnyardgrass: 60
Barnyardgrass [4]; [8]
  Barnyardgrass plant response rating: 0
Barnyardgrass [4]; [12]
  Barnyardgrass plant response rating: 20
Rice [5]; [10]
  Rice plant response rating (0 to 100 scale): 0
Rice [5]; visual rating, 0 = no effect, 100 = complete control
  Plant response rating, Rice: 60
blackgrass; [8]
  Blackgrass plant response rating: 40
blackgrass; [12]
  Blackgrass plant response rating: 40
wheat; [8]
  Wheat plant response rating: 20
wheat; [12]
  Wheat plant response rating: 30
